Reference: patent publication US6914045B2, “Glycopeptide antibiotics” (Wyeth Holdings Corporation, priority 2001, dated 2005)

Legend:
[1] = system: Staphylococcus aureus-SMITH (GC 4543); test: acute lethal infection in mice; type: in vivo; settings: acute lethal infection, female CD-1 mice, intraperitoneal challenge, intravenous 30 min. after infection, 7 day survival
Summary of the method: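 Intraperitoneal challenge of female CD-1 mice with a bacterial dose lethal to untreated animals within 24-48 hr; single iv treatment 30 min later, 5 mice per dose level. Survival is scored at day 7 and pooled from three experiments to give the median effective dose.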

Escherichia coli = test: in vitro antibacterial evaluation, MIC by broth dilution; type: cell-based; settings: 18 hours at 35° C.
[2] = anatomic pathology (histopathology of heart and kidney) in mice; type: in vivo; settings: CD-1 mice, 20 mg/kg intravenously daily for 9 days, necropsy day 10, microscopic histopathology
Description: Samples of tissues from necropsied mice were formalin-fixed, paraffin-embedded, sectioned, stained with hematoxylin and eosin, and examined microscopically. Histopathologic findings were recorded. These findings were subjectively graded on a scale corresponding to slight, mild, moderate, marked and severe as compared to untreated controls.

[3] = clinical pathology (serum clinical chemistry) in mice; type: in vivo; settings: CD-1 mice, 20 mg/kg intravenously daily for 9 days, sera day 10
Description: 20-day-old CD-1 mice were divided into a vehicle control group (5 mice) and a treatment group (5 mice). Samples of glycopeptide antibiotics were administered at 20 mg/kg intravenously daily for 9 days.

Enterococcus sp. = test: in vitro antibacterial evaluation, MIC by broth dilution; type: cell-based; settings: broth dilution, 18 hours at 35° C.
Summary of the method: (§1)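 Following National Committee for Clinical Laboratory Standards recommendations (M7-A2), susceptibility was measured by dilution in Muller-Hinton II […]. Bacteria were seeded at 5×10^5 CFU/mL against compound concentrations from 64 down to 0.06 μg/mL.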

Staphylococcus sp. = test: as above; type: cell-based; settings: broth dilution, 18 hours at 35° C.
Summary of the method: as §1

Streptococcus sp. = test: as above; type: cell-based; settings: broth dilution, 18 hours at 35° C.
Summary of the method: as §1

COc1ccc2cc(COC3C(CO)OC(OC4C(CO)OC(Oc5ccc(CC6NC(=O)C(C(C)c7ccccc7)NC(=O)CNC(=O)C(CO)NC(=O)C(CC7CNC(=N)N7C7OC(CO)C(O)C(O)C7O)NC(=O)C(CC7CNC(=N)N7)NC6=O)cc5)C(O)C4O)C(O)C3O)ccc2c1 (stereo not drawn) [Example 245a, Cyclo[3-(2-iminoimidazolidin-4-yl)alanyl-3-(3-hexopyranosyl-2-iminoimidazolidin-4-yl)-alanylserylglycyl-β-methylphenylalanyl-O-[4-O-[4-O-[(6-methoxy-2-naphthyl)methyl]-hexopyranosyl]hexopyranosyl]tyrosyl]]
4 µg/mL: MIC Enterococcus avium (GC 4558) (Enterococcus sp.) | MIC Enterococcus faecalis (GC 2242) (Enterococcus sp.) | MIC Enterococcus faecalis (GC 3059) (Enterococcus sp.) | MIC Enterococcus faecalis (GC 4553) (Enterococcus sp.) | MIC Enterococcus faecium (GC 2243) (Enterococcus sp.) | MIC Enterococcus faecium (GC 4556) (Enterococcus sp.) | MIC Enterococcus faecium (GC 2243) (Enterococcus sp.; strain GC 2243) | MIC Enterococcus faecalis (GC 4553) (Enterococcus sp.; strain GC 4553) | MIC Enterococcus faecium (GC 4556) (Enterococcus sp.; strain GC 4556) | MIC Enterococcus avium (GC 4558) (Enterococcus sp.; strain GC 4558) | MIC Enterococcus faecalis (GC 2242) (Enterococcus sp.; inoculum 5×10^5 CFU/mL, strain GC 2242) | MIC Enterococcus faecalis (GC 3059) (Enterococcus sp.; inoculum 5×10^5 CFU/mL, strain GC 3059) | MIC Staphylococcus aureus (GC 1131) (Staphylococcus sp.) | MIC Staphylococcus aureus (GC 1131) (Staphylococcus sp.; strain GC 1131)
<0.12 µg/mL: MIC Streptococcus pneumoniae (GC 1894) (Streptococcus sp.) | MIC Streptococcus pneumoniae (GC 1894) (Streptococcus sp.; inoculum 5×10^5 CFU/mL, strain GC 1894)
+++: Anatomical Pathology (Day 10), Kidney [2]
+: Anatomical Pathology (Day 10), Heart [2]
1 µg/mL: MIC Coagulase Negative Staphylococcus (GC 4548) (Staphylococcus sp.) | MIC Coagulase Negative Staphylococcus (GC 6257) (Staphylococcus sp.) | MIC Staphylococcus haemolyticus (GC 4546) (Staphylococcus sp.) | MIC Staphylococcus haemolyticus (GC 4546) (Staphylococcus sp.; strain GC 4546) | MIC Coagulase Negative Staphylococcus (GC 4548) (Staphylococcus sp.; strain GC 4548) | MIC Coagulase Negative Staphylococcus (GC 6257) (Staphylococcus sp.; strain GC 6257) | MIC Streptococcus agalactiae (GC 4564) (Streptococcus sp.) | MIC Streptococcus pneumoniae (GC 4565) (Streptococcus sp.) | MIC Streptococcus pyogenes (GC 4563) (Streptococcus sp.) | MIC Streptococcus pyogenes (GC 4563) (Streptococcus sp.; inoculum 5×10^5 CFU/mL, strain GC 4563) | MIC Streptococcus agalactiae (GC 4564) (Streptococcus sp.; inoculum 5×10^5 CFU/mL, strain GC 4564) | MIC Streptococcus pneumoniae (GC 4565) (Streptococcus sp.; inoculum 5×10^5 CFU/mL, strain GC 4565)
32 µg/mL: MIC Escherichia coli (ATCC 25922) (Escherichia coli) | MIC Escherichia coli (GC 4559) (Escherichia coli)
1 mg/kg: median effective dose (ED50), Staphylococcus aureus-SMITH (GC 4543) [1]
2 µg/mL: MIC Escherichia coli (GC 4560) (Escherichia coli) | MIC Enterococcus faecium (GC 4557) (Enterococcus sp.) | MIC Enterococcus faecium (GC 4557) (Enterococcus sp.; strain GC 4557) | MIC Coagulase Negative Staphylococcus (GC 4547) (Staphylococcus sp.) | MIC Coagulase Negative Staphylococcus (GC 4551) (Staphylococcus sp.) | MIC Staphylococcus aureus (ATCC 29213) (Staphylococcus sp.) | MIC Staphylococcus aureus (GC 3051) (Staphylococcus sp.) | MIC Staphylococcus aureus (GC 3053) (Staphylococcus sp.) | MIC Staphylococcus aureus (GC 4541) (Staphylococcus sp.) | MIC Staphylococcus aureus (GC 4542) (Staphylococcus sp.) | MIC Staphylococcus aureus (GC 4544) (Staphylococcus sp.) | MIC Staphylococcus aureus (GC 4545) (Staphylococcus sp.) | MIC Staphylococcus aureus-SMITH (GC 4543) (Staphylococcus sp.) | MIC Staphylococcus aureus (ATCC 29213) (Staphylococcus sp.; strain ATCC 29213) | MIC Staphylococcus aureus (GC 3051) (Staphylococcus sp.; strain GC 3051) | MIC Staphylococcus aureus (GC 3053) (Staphylococcus sp.; strain GC 3053) | MIC Staphylococcus aureus (GC 4541) (Staphylococcus sp.; strain GC 4541) | MIC Staphylococcus aureus (GC 4542) (Staphylococcus sp.; strain GC 4542) | MIC Staphylococcus aureus-SMITH (GC 4543) (Staphylococcus sp.; strain GC 4543) | MIC Staphylococcus aureus (GC 4544) (Staphylococcus sp.; strain GC 4544) | MIC Staphylococcus aureus (GC 4545) (Staphylococcus sp.; strain GC 4545) | MIC Coagulase Negative Staphylococcus (GC 4547) (Staphylococcus sp.; strain GC 4547) | MIC Coagulase Negative Staphylococcus (GC 4551) (Staphylococcus sp.; strain GC 4551)
8 µg/mL: MIC Enterococcus faecalis (ATCC 29212) (Enterococcus sp.) | MIC Enterococcus faecalis (GC 2691) (Enterococcus sp.) | MIC Enterococcus faecalis (GC 4552) (Enterococcus sp.) | MIC Enterococcus faecalis (GC 4554) (Enterococcus sp.) | MIC Enterococcus faecalis (GC 6189) (Enterococcus sp.) | MIC Enterococcus faecalis (ATCC 29212) (Enterococcus sp.; strain ATCC 29212) | MIC Enterococcus faecalis (GC 4552) (Enterococcus sp.; strain GC 4552) | MIC Enterococcus faecalis (GC 4554) (Enterococcus sp.; strain GC 4554) | MIC Enterococcus faecalis (GC 6189) (Enterococcus sp.; strain GC 6189) | MIC Enterococcus faecalis (GC 2691) (Enterococcus sp.; inoculum 5×10^5 CFU/mL, strain GC 2691)
+212%: Clinical Chemistry (Day 10) % of Control, BUN [3]
0.5 µg/mL: MIC Coagulase Negative Staphylococcus (GC 4549) (Staphylococcus sp.) | MIC Coagulase Negative Staphylococcus (GC 4549) (Staphylococcus sp.; strain GC 4549) | MIC Streptococcus pneumoniae (ATCC 6301) (Streptococcus sp.) | MIC Streptococcus pneumoniae (ATCC 6301) (Streptococcus sp.; inoculum 5×10^5 CFU/mL, strain ATCC 6301)
+133%: Clinical Chemistry (Day 10) % of Control, Creatinine [3]
